{
  "source": "patent US20030162759A1",
  "about": "“Aldosterone blocker therapy to prevent or treat inflammation-related disorders” (priority 2000, published 2003)",
  "format_in_all_cases": "in vivo, rat",
  "key": {"[1]": {"tested_on": "osteopontin, ED-1, CD-3, ICAM-1, VCAM-1", "test": "Assay C: immunohistochemistry of myocardial tissue (osteopontin, ED-1, CD-3, ICAM-1, VCAM-1)", "details": "aldosterone+salt treated rats; eplerenone 100 mg/kg/day", "protocol": "The procedure of Assay B was expanded upon in a further study. […] Myocardial tissue from animals in each treatment group was examined after 7, 14, or 30 days of treatment. […] Lesions were preceded by the expression and progressive upregulation of proinflammatory molecules.\nPotassium chloride supplementation was added to the saline solution in order to prevent the potential hypokalemia associated with aldosterone excess.\nAt the time of the surgery, an Alzet 2002 osmotic minipump (Alza Corp., Palo Alto, Calif.) containing either vehicle (9% ethanol/87% propylene glycol/4% dH2O) or 1.0 mg/mL d-aldosterone (Sigma Chemical, St. Louis, Mo.) was inserted subcutaneously at the nape of the neck. Aldosterone was administered at a dose of 0.75 g/hour. […] Animals were sacrificed from each group (n=8-13) after 7, 14, or 30 days of treatment.\nFive m sections were deparaffinized in xylene (two, 5-10 min incubations) and rehydrated by 3 min incubations in ethanol as follows: two incubations in 100% ethanol followed by two incubations in 95% alcohol and one incubation in 70% alcohol. Once hydrated, sections were rinsed in tap water for 1 min and distilled water for 1 min. Endogenous peroxide activity was blocked by placing slides in 3.0% H2O2 for 15 min followed by a 5 min rinse in distilled water. Slides were processed for antigen retrieval using citric acid, pH 6.0. […]"}, "osteopontin": {"tested_on": "osteopontin", "test": "Assay B aldosterone infusion model: osteopontin mRNA in heart by quantitative RT-PCR (Taqman)", "protocol": "Assay B: In vivo Aldosterone Infusion Model Male Sprague Dawley rats (n=39; BW=250 g) […] Uni-nephrectomy performed during implantation of mini-pumps […] Aldosterone ([…], sc via aizet minipump) […] 1. […] Sacrifice after 4 weeks. Hearts were harvested and divided by half through a transverse section at the mid-ventricles: The upper half was stored into formalin. The bottom part was snap-frozen in liquid nitrogen for biochemical analysis. Determination of osteopontin and COX-2 was performed by quantitative RT-PCR (Taqman). Osteopontin was also identified in the heart by immunohistochemistry."}, "[2]": {"tested_on": "angiotensin II infused, captopril treated stroke prone spontaneously hypertensive rats", "test": "Angiotensin II infused, captopril treated stroke prone spontaneously hypertensive rats: urinary protein excretion and renal injury (FIGS. 35-36)"}},
  "data": [
    {"smiles": "COC(=O)[C@@H]1CC2=CC(=O)CC[C@]2(C)[C@@]23O[C@@H]2C[C@@]2(C)[C@@H](CC[C@@]24CCC(=O)O4)[C@H]13", "note": "[eplerenone, Pregn-4-ene-7,21-dicarboxylic acid, 9,11-epoxy-17-hydroxy-3-oxo-, γ-lactone, methyl ester, (7α, 11α, 17β) -]", "values": [
      {"measurement": "Staining in myocardial tissue for marker proteins (immunohistochemistry)", "setting": "[1]", "value": "markedly blunted the aldosterone+salt treatment induced staining"},
      {"measurement": "Osteopontin upregulation in myocardium", "setting": "osteopontin; aldosterone infused rats (FIG. 30)", "value": "prevention by eplerenone of osteopontin upregulation"},
      {"measurement": "Osteopontin relative mRNA expression", "setting": "osteopontin; heart, quantitative RT-PCR, aldosterone/salt rats, 4 weeks, eplerenone 100 mpk p.o.", "value": "2.5±0.6"},
      {"measurement": "Urinary protein excretion", "setting": "[2]; captopril treated SHRSP (FIG. 35)", "value": "inhibition of increased urinary protein excretion"},
      {"measurement": "Histopathological scores for renal injury", "setting": "[2]; captopril treated SHRSP (FIG. 36)", "value": "reduction in histopathological scores for renal injury"}
    ]}
  ]
}
